{"source": "ChEMBL document CHEMBL1201862", "about": "“PubChem BioAssay data set” (2004)", "key": {"[1]": {"target": "Glyceraldehyde-3-phosphate dehydrogenase (Homo sapiens, UniProt P04406)", "sequence (P04406 whole entry)": "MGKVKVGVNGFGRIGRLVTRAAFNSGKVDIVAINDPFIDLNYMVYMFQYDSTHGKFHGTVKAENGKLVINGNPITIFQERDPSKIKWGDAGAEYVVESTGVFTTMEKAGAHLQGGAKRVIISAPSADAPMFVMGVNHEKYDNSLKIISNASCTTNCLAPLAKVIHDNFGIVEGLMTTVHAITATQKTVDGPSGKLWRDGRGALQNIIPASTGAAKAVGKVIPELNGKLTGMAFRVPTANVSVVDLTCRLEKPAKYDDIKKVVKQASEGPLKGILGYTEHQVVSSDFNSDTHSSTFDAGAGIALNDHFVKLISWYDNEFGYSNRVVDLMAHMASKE"}, "[2]": {"target": "Alkaline phosphatase, placental type (Homo sapiens, UniProt P05187)", "sequence (P05187 whole entry)": "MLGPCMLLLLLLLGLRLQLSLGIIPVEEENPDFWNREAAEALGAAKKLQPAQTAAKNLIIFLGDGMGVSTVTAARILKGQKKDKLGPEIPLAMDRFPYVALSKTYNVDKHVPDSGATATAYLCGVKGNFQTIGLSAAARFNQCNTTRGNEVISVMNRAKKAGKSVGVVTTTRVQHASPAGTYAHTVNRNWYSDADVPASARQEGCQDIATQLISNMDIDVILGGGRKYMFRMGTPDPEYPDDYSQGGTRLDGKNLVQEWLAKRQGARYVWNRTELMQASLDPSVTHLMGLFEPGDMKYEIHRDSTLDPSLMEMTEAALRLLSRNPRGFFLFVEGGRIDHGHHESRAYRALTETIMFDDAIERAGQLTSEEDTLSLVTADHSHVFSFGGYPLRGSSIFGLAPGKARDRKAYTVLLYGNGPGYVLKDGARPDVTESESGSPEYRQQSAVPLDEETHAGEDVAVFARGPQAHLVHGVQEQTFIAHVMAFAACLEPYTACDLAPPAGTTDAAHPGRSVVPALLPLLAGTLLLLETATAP", "assay": "human placental alkaline phosphatase inhibition – biochemical, luminescence, confirmation (AID 1512)", "assay_type": "functional"}, "[3]": {"target": "T1, Alkaline phosphatase, tissue-nonspecific isozyme (Homo sapiens, UniProt P05186)", "T1 sequence (P05186 whole entry)": "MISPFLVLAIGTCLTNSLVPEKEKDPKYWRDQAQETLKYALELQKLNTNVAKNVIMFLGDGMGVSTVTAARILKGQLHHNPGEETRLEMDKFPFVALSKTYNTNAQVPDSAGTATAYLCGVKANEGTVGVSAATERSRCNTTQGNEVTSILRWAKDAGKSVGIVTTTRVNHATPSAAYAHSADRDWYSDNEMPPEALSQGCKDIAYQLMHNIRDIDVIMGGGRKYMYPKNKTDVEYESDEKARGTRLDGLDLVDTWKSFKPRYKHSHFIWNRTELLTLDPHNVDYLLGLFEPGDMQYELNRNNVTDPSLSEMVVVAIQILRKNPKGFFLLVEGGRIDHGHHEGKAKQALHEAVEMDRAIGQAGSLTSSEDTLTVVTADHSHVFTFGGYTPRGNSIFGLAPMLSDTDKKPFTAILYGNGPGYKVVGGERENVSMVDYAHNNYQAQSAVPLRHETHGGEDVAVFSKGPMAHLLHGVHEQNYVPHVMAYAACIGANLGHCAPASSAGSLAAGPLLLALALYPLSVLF", "assay": "potency against alkaline phosphatase TNAP – biochemical, luminescent, dose response, SAR follow-up (AID 1056)"}, "Ion channel NompC": {"target": "Ion channel NompC (Danio rerio, UniProt Q7T1G6)", "assay": "Dose response cell-based high-throughput screening assay for agonists of the transient receptor potential channel N1 (TRPN1). [Related pubchem assays (depositor defined):AID1424, AID1448]", "assay_type": "functional"}, "Mucolipin-3": {"target": "T2, Mucolipin-3 (Homo sapiens, UniProt Q8TDD5)", "T2 sequence (Q8TDD5 whole entry)": "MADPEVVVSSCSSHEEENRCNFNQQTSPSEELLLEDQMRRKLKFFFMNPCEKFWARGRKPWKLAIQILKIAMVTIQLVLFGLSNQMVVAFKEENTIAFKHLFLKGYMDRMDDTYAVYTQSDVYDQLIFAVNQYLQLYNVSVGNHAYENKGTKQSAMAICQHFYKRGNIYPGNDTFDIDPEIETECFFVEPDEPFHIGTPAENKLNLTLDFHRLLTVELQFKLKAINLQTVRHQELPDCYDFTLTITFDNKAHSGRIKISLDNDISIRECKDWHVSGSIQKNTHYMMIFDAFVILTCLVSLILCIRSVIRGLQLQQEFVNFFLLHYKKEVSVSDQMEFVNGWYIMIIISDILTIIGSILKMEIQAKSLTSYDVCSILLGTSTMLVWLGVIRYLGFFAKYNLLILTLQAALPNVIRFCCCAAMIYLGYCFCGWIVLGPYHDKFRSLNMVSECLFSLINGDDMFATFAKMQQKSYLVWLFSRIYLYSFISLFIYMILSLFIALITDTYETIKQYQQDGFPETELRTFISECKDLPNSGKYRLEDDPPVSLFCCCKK", "assay": "Fluorescence counterscreen assay for […] agonists: dose response cell-based high-throughput screening assay to identify agonists of the transient receptor potential channel ML3 (TRPML3). [Related pubchem assays: 1424, 1448 ]", "assay_type": "functional"}, "[4]": {"target": "Peroxisome proliferator-activated receptor gamma/Nuclear receptor coactivator 1 (Homo sapiens, UniProt P37231)", "sequence (P37231 whole entry)": "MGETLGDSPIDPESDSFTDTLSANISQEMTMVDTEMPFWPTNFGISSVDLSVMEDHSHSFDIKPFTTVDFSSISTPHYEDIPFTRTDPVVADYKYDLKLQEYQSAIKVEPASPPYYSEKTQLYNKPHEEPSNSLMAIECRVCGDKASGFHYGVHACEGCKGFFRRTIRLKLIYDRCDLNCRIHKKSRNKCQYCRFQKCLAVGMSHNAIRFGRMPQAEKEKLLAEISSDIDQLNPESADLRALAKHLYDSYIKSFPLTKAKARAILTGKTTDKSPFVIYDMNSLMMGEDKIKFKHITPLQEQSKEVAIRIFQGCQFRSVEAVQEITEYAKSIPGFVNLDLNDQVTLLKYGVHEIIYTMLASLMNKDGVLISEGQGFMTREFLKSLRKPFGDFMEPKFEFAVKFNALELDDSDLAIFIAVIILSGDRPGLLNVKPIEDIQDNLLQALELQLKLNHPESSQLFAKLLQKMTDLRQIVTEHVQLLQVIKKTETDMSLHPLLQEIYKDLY", "sequence (Q15788 whole entry, further chain)": "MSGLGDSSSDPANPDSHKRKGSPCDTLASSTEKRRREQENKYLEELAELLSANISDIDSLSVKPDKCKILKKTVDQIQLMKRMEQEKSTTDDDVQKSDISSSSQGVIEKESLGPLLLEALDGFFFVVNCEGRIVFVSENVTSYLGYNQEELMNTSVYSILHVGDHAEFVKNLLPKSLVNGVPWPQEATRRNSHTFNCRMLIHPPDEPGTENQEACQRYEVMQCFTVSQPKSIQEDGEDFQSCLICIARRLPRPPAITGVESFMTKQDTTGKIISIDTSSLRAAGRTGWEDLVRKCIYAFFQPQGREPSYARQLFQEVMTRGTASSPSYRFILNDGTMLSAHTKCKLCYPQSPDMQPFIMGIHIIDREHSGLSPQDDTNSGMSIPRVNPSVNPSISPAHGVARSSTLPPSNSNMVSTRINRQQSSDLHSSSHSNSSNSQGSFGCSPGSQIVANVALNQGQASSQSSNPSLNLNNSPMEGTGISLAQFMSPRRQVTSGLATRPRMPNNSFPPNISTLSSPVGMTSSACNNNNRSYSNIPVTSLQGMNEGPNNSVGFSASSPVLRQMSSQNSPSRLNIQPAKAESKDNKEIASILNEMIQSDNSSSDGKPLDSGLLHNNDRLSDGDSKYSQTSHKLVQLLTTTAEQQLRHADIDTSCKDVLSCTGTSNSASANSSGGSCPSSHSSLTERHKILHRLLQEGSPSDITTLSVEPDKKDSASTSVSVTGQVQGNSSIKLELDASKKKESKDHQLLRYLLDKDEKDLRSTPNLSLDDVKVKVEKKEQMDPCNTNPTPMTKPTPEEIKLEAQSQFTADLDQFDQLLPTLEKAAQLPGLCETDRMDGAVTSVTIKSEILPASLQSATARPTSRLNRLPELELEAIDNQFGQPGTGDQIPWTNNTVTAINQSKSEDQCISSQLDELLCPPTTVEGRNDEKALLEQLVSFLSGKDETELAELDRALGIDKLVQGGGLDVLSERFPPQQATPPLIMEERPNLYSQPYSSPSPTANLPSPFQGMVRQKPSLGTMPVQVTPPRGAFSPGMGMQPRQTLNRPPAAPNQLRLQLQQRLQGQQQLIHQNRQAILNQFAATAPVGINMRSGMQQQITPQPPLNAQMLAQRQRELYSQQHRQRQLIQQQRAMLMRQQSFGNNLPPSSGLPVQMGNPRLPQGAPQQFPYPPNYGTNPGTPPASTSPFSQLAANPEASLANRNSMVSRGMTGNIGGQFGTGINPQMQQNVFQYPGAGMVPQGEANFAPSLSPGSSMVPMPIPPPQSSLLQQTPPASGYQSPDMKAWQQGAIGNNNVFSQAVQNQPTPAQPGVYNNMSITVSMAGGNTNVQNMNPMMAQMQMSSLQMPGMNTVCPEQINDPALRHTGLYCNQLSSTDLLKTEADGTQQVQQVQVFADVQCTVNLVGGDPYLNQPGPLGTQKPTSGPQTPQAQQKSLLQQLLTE", "assay": "(§1) TR-FRET dose response biochemical High Throughput Screening assay for agonists of the steroid receptor coactivator 1 (SRC-1) recruitment by the peroxisome proliferator-activated receptor gamma (PPAR gamma): non-selective agonists. [Related pubchem assays (depositor defined):AID1300, AID1808, AID504735, AID631]", "assay_type": "protein assay"}, "[5]": {"target": "Peroxisome proliferator-activated receptor gamma/Nuclear receptor coactivator 3 (Homo sapiens, UniProt P37231)", "sequence (P37231 whole entry)": "as the sequence (P37231 whole entry) above", "sequence (Q9Y6Q9 whole entry, further chain)": "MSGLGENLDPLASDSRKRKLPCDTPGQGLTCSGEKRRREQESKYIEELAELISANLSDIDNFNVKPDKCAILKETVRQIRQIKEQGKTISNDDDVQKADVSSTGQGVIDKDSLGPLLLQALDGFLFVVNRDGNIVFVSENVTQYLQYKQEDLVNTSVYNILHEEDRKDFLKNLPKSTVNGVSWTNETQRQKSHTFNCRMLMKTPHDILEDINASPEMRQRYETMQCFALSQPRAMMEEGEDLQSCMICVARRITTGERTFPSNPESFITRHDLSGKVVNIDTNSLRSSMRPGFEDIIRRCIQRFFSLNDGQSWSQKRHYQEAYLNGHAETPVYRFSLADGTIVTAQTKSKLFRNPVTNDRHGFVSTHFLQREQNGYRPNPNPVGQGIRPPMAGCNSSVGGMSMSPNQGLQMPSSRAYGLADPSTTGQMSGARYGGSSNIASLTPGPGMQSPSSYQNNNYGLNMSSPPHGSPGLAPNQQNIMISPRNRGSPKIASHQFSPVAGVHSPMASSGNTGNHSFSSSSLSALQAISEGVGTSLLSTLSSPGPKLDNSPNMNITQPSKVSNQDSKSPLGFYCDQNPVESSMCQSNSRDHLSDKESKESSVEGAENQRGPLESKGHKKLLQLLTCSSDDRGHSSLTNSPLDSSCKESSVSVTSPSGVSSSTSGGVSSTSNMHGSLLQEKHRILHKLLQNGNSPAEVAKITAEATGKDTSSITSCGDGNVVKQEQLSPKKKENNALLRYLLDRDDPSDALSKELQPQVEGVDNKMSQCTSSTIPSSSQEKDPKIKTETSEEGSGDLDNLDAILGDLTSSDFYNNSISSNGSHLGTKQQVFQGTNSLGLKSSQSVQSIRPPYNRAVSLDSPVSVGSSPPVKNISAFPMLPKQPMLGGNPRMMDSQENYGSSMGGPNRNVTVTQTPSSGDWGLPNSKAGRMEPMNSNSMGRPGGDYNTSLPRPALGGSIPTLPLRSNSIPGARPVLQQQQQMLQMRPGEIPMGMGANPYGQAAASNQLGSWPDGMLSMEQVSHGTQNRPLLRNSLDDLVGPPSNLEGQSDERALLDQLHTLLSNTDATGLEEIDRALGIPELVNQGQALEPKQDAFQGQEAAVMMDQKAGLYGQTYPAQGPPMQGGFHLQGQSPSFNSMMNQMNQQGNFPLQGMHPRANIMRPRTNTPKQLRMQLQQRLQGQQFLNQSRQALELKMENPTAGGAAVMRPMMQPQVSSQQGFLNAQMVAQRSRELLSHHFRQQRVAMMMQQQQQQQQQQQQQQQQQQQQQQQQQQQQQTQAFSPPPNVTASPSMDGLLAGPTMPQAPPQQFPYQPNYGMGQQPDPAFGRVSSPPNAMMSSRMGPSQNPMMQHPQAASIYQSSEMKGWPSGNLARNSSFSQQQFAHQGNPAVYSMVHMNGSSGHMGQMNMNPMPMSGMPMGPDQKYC", "assay": "as §1, with “3 (SRC-3)” for “1 (SRC-1)”, “assays: 1301 (Confirmation screen.), 1048 (Primary screen.)]” for “assays (depositor defined):AID1300, AID1808, AID504735, AID631]”", "assay_type": "functional"}, "[6]": {"target": "Peroxisome proliferator-activated receptor gamma/Nuclear receptor coactivator 2 (Homo sapiens, UniProt P37231)", "assay": "TR-FRET dose response biochemical High Throughput Screening assay for agonists of the steroid receptor coactivator 2 (SRC-2) recruitment by the peroxisome proliferator-activated receptor gamma (PPAR gamma): non-selective agonists. [Related pubchem assays: 1297, 1032 ]", "assay_type": "functional"}}, "note": "The source made the active and inactive calls. Rule as the data show it, for most assays here: active = EC50 of 10 µM or less and inactive = more."}
{"smiles": "COC(=O)c1cc(-c2cc(F)c(Cl)cc2Cl)n[nH]1", "values": [{"measurement": "IC50", "setting": "[1]", "value": "> 100 µM (not active)"}, {"measurement": "IC50", "setting": "[2]", "value": "> 100 µM (inactive)"}, {"measurement": "IC50", "setting": "[3]", "value": "0.911 µM (active)"}]}
{"smiles": "CCOC(=O)c1ccc(NC(=O)Nc2ccc(F)cc2)cc1", "values": [{"measurement": "EC50", "setting": "Ion channel NompC", "value": "> 9.97 µM (inactive)"}, {"measurement": "EC50", "setting": "Mucolipin-3", "value": "> 29.9 µM (not active)"}]}
{"smiles": "Cn1c(=O)cc(SCC(=O)N2CCC3(CC2)OCCO3)c2ccccc21", "values": [{"measurement": "EC50", "setting": "[4]", "value": "> 79.4 µM (inactive)"}, {"measurement": "EC50", "setting": "[5]", "value": "> 79.4 µM (not active)"}, {"measurement": "EC50", "setting": "[6]", "value": "> 79.4 µM (not active)"}]}
{"smiles": "Brc1ccc(-c2nc3ccccc3s2)s1", "values": [{"measurement": "EC50", "setting": "[4]", "value": "3.34 µM (active)"}, {"measurement": "EC50", "setting": "[5]", "value": "81.4 µM (not active)"}, {"measurement": "EC50", "setting": "[6]", "value": "3.18 µM (active)"}]}
